From US12415785B2, “Compound modulators of sting” (CTXT PTY LTD, priority 2019, dated 2025)

Assays:
human STING (HAQ) = human STING (HAQ) (Homo sapiens, UniProt Q86WV6, G230A/H232R/R293Q); assay: Differential scanning fluorimetry (DSF), huSTING (HAQ); type: binding; details: 2 μM protein, compound 100 μM; Tm with ligand minus Tm of protein alone (1% DMSO); read-out: DSF huSTING (HAQ) ΔTm (° C.)
Method: (§1) Biophysical experiments were performed with three different recombinant human STING protein variants designated according to allelic nomenclature of Yi et al., (2013). […] These were ligated into a modified pET43a E. coli expression vector designed to encode N-terminal His tag followed by tobacco etch virus protease (TEV) cleavage site and a STING gene sequence. The resulting protein sequences for the three allelic variants are listed below: […] Cultures were then cooled to 16° C. and protein expression induced by the addition of isopropyl β-D-1-thiogalactopyranoside to a final concentration of 0.5 mM and the cultures shaken overnight for further 16 hours. Following expression, cell cultures were centrifuged at 5000×g for 20 min and cell pellet stored frozen at −70° C. Protein purification was initiated by thawing the cell pellet in Lysis buffer (25 mM Tris-HCl pH 8.0, 300 mM NaCl, 5 mM DTT, 2 mM MgCl2, 10 mM imidazole, 0.5 mg/ml lysozyme, benzonase endonuclease [EMD Millipore], 1 mM PMSF, complete protease inhibitor tablets EDTA-free [Roche]) using a ratio of 7 ml of buffer per 1 g of cells. Cells were further lysed by 3 passes through an ice cooled Avestin C5 cell crusher and then centrifuged at 48,000×g at 4° C. […] The IMAC column was then sequentially washed with IMAC Wash buffer 1 and IMAC Wash buffer 2 (25 mM Tris-HCl pH 8.0, 300 mM NaCl, 5 mM DTT, 20 mM Imidazole) and bound His-TEV-hSTING protein eluted with IMAC Elution buffer (25 mM Tris-HCl pH 8.0, 300 mM NaCl, 5 mM DTT, 250 mM Imidazole). […] Differential scanning fluorimetry (DSF) is a rapid screening method for identifying low-molecular-weight ligands that bind and, in doing so, stabilize (or sometimes destabilize) purified proteins (Niesen 2007). DSF monitors thermal unfolding of protein in the presence of a fluorescent dye and is typically performed using a real-time PCR instrument. The temperature at which a protein unfolds is measured by an increase in the fluorescence of a dye with affinity for hydrophobic parts of the protein that are gradually being exposed during unfolding. The fluorescence of the dye is quenched in aqueous environments, but when the dye associates with hydrophobic sites on unfolded protein, its fluorescence increases. The fluorescence intensity is plotted as a function of the temperature, generating a sigmoidal curve that can be described by a two-state transition. The inflection point of the transition curve (Tm) is calculated using simple equations such as that of Boltzmann. Thermal stability of STING protein (with and without bound ligand) was measured using previously described methodology (Seabrook & Newman, 2013), with samples tested in triplicate using 96-well PCR microplate (AB Gene, ABGAB-0600/W). […] Sealed plates were placed into Bio-Rad CFX96/C1000 thermocycler and FRET scanning mode (λ^excitation of 490 nm and reads at a λ^emission of 570 nm). Melting curves were recorded from 20° C. to 100° C. in 0.5° C. increments every 30 seconds with a read at each increment. Data were analysed using “Meltdown analysis” protocol described by Rosa (2015).

human STING (WT) = human STING (WT) (Homo sapiens (Human), UniProt Q86WV6, H232R); assay: Differential scanning fluorimetry (DSF), huSTING (WT); type: binding; details: 2 μM protein, compound 100 μM, Tm with ligand minus Tm of protein alone (1% DMSO); for ΔTm at 100 µM: read-out: DSF huSTING (WT) ΔTm (° C.)
Chain of human STING (WT) (Q86WV6 other isoform, or with tags, fused parts or gaps, stated change not applied): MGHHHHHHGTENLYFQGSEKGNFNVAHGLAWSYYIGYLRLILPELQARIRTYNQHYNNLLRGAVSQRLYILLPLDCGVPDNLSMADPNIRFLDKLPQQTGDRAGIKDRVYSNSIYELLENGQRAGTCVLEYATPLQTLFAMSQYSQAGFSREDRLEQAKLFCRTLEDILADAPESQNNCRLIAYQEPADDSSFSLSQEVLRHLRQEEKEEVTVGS
Method: as §1

Chain of human STING (HAQ) (Q86WV6 whole entry G230A/H232R/R293Q, looked up): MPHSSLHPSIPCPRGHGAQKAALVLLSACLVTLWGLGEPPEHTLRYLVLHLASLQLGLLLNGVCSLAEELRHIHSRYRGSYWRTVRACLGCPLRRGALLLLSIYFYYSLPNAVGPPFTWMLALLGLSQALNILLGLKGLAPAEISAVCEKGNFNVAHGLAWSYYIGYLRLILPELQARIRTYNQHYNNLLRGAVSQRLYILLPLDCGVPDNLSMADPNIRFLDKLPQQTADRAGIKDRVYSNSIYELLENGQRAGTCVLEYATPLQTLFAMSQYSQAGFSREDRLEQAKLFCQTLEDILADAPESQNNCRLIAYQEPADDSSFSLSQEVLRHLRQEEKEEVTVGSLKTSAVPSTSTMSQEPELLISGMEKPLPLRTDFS

ΔTm at 100 µM (human STING (HAQ))	ΔTm at 100 µM (human STING (WT))	DSF huSTING (WT) ΔTm (° C.) (human STING (WT))	Compound
7.23 °C	3.28 °C		COc1c(C(N)=O)ccc2c1nc(-c1ccccc1C(=O)O)n2CCn1c(-c2ccccc2C(=O)O)nc2c(OC)c(C(N)=O)ccc21 [Example 4, 2,2′-(Ethane-1,2-diylbis(5-carbamoyl-4-methoxy-1H-benzo[d]imidazole-1,2-diyl))dibenzoic acid]
1.28 °C	-2.51 °C		COc1c(C(N)=O)ccc2c1nc(-c1ccc(Cl)cc1C(=O)O)n2CCCn1c(-c2ccc(Cl)cc2C(=O)O)nc2c(OC)c(C(N)=O)ccc21 [Example 35, 6,6′-(Propane-1,3-diylbis(5-carbamoyl-4-methoxy-1H-benzo[d]imidazole-1,2-diyl))bis(3-chlorobenzoic acid)]
4.52 °C	1.09 °C		COc1ccc(-c2nc3c(OC)c(C(N)=O)ccc3n2CCn2c(-c3ccc(OC)cc3C(=O)O)nc3c(OC)c(C(N)=O)ccc32)c(C(=O)O)c1 [Example 41, 6,6′-(Ethane-1,2-diylbis(5-carbamoyl-4-methoxy-1H-benzo[d]imidazole-1,2-diyl))bis(3-methoxybenzoic acid)]
-3.48 °C	-6.94 °C		NC(=O)c1ccc2c(c1)nc(-c1ccccc1C(=O)O)n2CCn1c(-c2ccccc2C(=O)O)nc2cc(C(N)=O)ccc21 [Example 2, 2,2′-(Ethane-1,2-diylbis(5-carbamoyl-1H-benzo[d]imidazole-1,2-diyl))dibenzoic acid]
-1.74 °C	-7.45 °C		COc1c(C(N)=O)ccc2c1nc(-c1cccc(Cl)c1-c1nn[nH]n1)n2CCn1c(-c2cccc(Cl)c2-c2nn[nH]n2)nc2c(OC)c(C(N)=O)ccc21 [Example 40, 1,1′-(Ethane-1,2-diyl)bis(2-(3-chloro-2-(2H-tetrazol-5-yl)phenyl)-4-methoxy-1H-benzo[d]imidazole-5-carboxamide)]
6.33 °C	1.13 °C		COc1c(C(N)=O)ccc2c1nc(-c1cc(C)ccc1C(=O)O)n2CCn1c(-c2cc(C)ccc2C(=O)O)nc2c(OC)c(C(N)=O)ccc21 [Example 26, 2,2′-(Ethane-1,2-diylbis(5-carbamoyl-4-methoxy-1H-benzo[d]imidazole-1,2-diyl))bis(4-methylbenzoic acid)]
28.2 °C	17 °C		COc1c(C(N)=O)ccc2c1nc(-c1c(Cl)cccc1C(=O)O)n2CCn1c(-c2c(Cl)cccc2C(=O)O)nc2c(OC)c(C(N)=O)ccc21 (racemic) [Example 22, 2,2′-(Ethane-1,2-diylbis(5-carbamoyl-4-methoxy-1H-benzo[d]imidazole-1,2-diyl))bis(3-chlorobenzoic acid)]
19.1 °C	2.4 °C		COc1c(C(N)=O)cc(F)c2c1nc(-c1c(F)cc(F)cc1C(=O)O)n2CCn1c(-c2c(F)cc(F)cc2C(=O)O)nc2c(OC)c(C(N)=O)cc(F)c21 [Example 18, 2,2′-(Ethane-1,2-diylbis(5-carbamoyl-7-fluoro-4-methoxy-1H-benzo[d]imidazole-1,2-diyl))bis(3,5-difluorobenzoic acid)]
31.7 °C		19.29 °C	COc1c(C(N)=O)ccc2c1nc(-c1c(I)cccc1C(=O)O)n2CCn1c(-c2c(I)cccc2C(=O)O)nc2c(OC)c(C(N)=O)ccc21 (single isomer, unassigned) [Example 19.1, 2,2′-(Ethane-1,2-diylbis(5-carbamoyl-4-methoxy-1H-benzo[d]imidazole-1,2-diyl))bis(3-iodobenzoic acid)]
11.9 °C	3.05 °C		COc1c(C(N)=O)ccc2c1nc(-c1ccc(Cl)cc1-c1n[nH]c(=O)o1)n2CCn1c(-c2ccc(Cl)cc2-c2n[nH]c(=O)o2)nc2c(OC)c(C(N)=O)ccc21 [Example 17, 1,1′-(Ethane-1,2-diyl)bis(2-(4-chloro-2-(5-oxo-4,5-dihydro-1,3,4-oxadiazol-2-yl)phenyl)-4-methoxy-1H-benzo[d]imidazole-5-carboxamide)]
